Earlier results on 1 molecule are cited in patent US6376534B1, “Compounds useful in pain management” (Astrazeneca Canada Inc., priority 1998, dated 2002).

SMILES strings stand for the structures.

One series concerns the target δ receptor (Homo sapiens, UniProt P41143). As to conditions: background statement.
The conditions of series [1]: background statement.

δ receptor, sequence (P41143 whole entry): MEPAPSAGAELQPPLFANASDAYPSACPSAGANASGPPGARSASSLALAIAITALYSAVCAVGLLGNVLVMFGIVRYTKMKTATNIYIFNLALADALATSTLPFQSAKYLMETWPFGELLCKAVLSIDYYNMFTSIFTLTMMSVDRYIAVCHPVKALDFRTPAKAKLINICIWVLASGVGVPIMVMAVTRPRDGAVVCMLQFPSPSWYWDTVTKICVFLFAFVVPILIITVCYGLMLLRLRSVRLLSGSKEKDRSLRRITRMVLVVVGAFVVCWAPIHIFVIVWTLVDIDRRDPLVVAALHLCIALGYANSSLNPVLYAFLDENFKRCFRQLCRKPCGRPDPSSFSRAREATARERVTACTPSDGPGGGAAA

In the case of `Oc1ccc2c3c1O[C@H]1c4[nH]c5ccccc5c4C[C@@]4(O)[C@@H](C2)N(CC2CC2)CC[C@]314` [naltrindole], at δ receptor, the “selectivity for the δ receptor vs. μ receptor binding” value is reported as below 10 fold. Further, the analgesic activity result in series [1] is reported as “no analgesic activity”.
